Laboratory results taken from patent publication US20170354148A1, “SAFENED HERBICIDAL COMPOSITIONS CONTAINING HALAUXIFEN AND METHODS OF USE THEREOF IN BRASSICA SPECIES” (Dow AgroSciences LLC, priority 2016, published 2017).
Values joined by “and” are separate entries in the source; they are usually repeats but may differ in a detail not shown here. Equal entries are not always repeated.

Key:
[1] = test system: Nexera™ canola (Brassica napus, BRSNN-NEX); assay: Example 5 greenhouse trials, postemergence visual injury; conditions: BRSNN-NEX, 20-22 d
[2] = test system: kale/Chinese kale (Brassica alboglabra, BRSAG); assay: as above; conditions: BRSAG, 20-22 d
[3] = test system: Spring Argentine canola (Brassica napus, BRSNS); assay: Example 3 field trials (Canada), postemergence crop safety, visual phytotoxicity
[4] = BRSNS, trial 1, 17DAA1, 150 g ae/ha
[5] = BRSNS, trial 1, 32DAA1, 150 g ae/ha

**Q.** Which “% Visual Injury Obs” value ([1]; 50 g ai/ha alone) does the source give for O=C(O)c1nc(Cl)ccc1Cl [Clopyralid-olamine, 2-hydroxyethanaminium 3,6-dichloro-2-pyridinecarboxylate] here?
**A.** 0%

**Q.** What about the “% Visual Injury Obs” value ([1]; 100 g ai/ha alone) of the same molecule?
**A.** 0%

**Q.** What about the “% Visual Injury Obs” value ([1]; 200 g ai/ha alone) of the same molecule?
**A.** 0%

**Q.** And the “% Visual Injury Obs” value ([2]; 50 g ai/ha alone)?
**A.** 0%

**Q.** And the “% Visual Injury Obs” value ([2]; 100 g ai/ha alone)?
**A.** 0%

**Q.** And the “% Visual Injury Obs” value ([2]; 200 g ai/ha alone)?
**A.** 0%

**Q.** And the “Mean % Visual Injury” value ([3]; BRSNS, 7DAAA, 150 g ae/ha (Tables 10, 11))?
**A.** 0.0%

**Q.** And the “Mean % Visual Injury” value ([3]; BRSNS, 15DAAA, 150 g ae/ha (Tables 10, 11))?
**A.** 1.5%

**Q.** And the “Mean % Visual Injury” value ([3]; BRSNS, 27DAAA, 150 g ae/ha (Tables 10, 11))?
**A.** 1.0%

**Q.** What about the “Mean % Visual Injury” value ([3]; BRSNS, 57DAAA, 150 g ae/ha (Tables 10, 11)) of the same molecule?
**A.** 2.0%

**Q.** What about the “Mean % Visual Deformation” value ([3]; BRSNS, 60DAA1, 150 g ae/ha) of the same molecule?
**A.** 0.0%

**Q.** What about the “Mean % Visual Injury” value ([3]; BRSNS, trial 1, 7DAA1, 150 g ae/ha) of the same molecule?
**A.** 1.0%

**Q.** What about the “Mean % Visual Epinasty” value [3, 4] of the same molecule?
**A.** 1.0%

**Q.** And the “Mean % Visual Injury” value [3, 4]?
**A.** 1.3%

**Q.** And the “Mean % Visual Epinasty” value [3, 5]?
**A.** 3.5%

**Q.** What about the “Mean % Visual Injury” value [3, 5] of the same molecule?
**A.** 7.0%

**Q.** And the “Mean % Visual Injury” value ([3]; BRSNS, trial 1, 49DAA1, 150 g ae/ha)?
**A.** 2.8%

**Q.** And the “Mean % Visual Injury” value ([3]; BRSNS, trial 2, 8DAA1, 150 g ae/ha)?
**A.** 1.8% and 2.0% and 1.3% and 1.4% and 1.5% and 1.0%

**Q.** And the “Mean % Visual Injury” value ([3]; BRSNS, trial 2, 17DAA1, 150 g ae/ha)?
**A.** 2.5%

**Q.** What about the “Mean % Visual Epinasty” value ([3]; BRSNS, trial 2, 35DAA1, 150 g ae/ha) of the same molecule?
**A.** 3.5% and 2.0%

**Q.** And the “Mean % Visual Injury” value ([3]; BRSNS, trial 2, 48DAA1, 150 g ae/ha)?
**A.** 2.0% and 0.8%

**Q.** And the “Mean % Visual Epinasty” value ([3]; BRSNS, trial 3, 6DAA1, 150 g ae/ha)?
**A.** 0.0%

**Q.** And the “Mean % Visual Epinasty” value ([3]; BRSNS, trial 3, 23DAA1, 150 g ae/ha)?
**A.** 0.0%

**Q.** And the “Mean % Visual Injury” value ([3]; BRSNS, trial 3, 33DAA1, 150 g ae/ha)?
**A.** 0.5% and 1.0%

**Q.** What about the “Mean % Visual Injury” value ([3]; BRSNS, trial 3, 69DAA1, 150 g ae/ha) of the same molecule?
**A.** 0.0%

**Q.** And the “Mean % Visual Injury” value ([3]; BRSNS, trial 4, 8DAA1, 150 g ae/ha)?
**A.** 1.5%

**Q.** What about the “Mean % Visual Injury” value ([3]; BRSNS, trial 4, 15DAA1, 150 g ae/ha) of the same molecule?
**A.** 1.5%

**Q.** And the “Mean % Visual Epinasty” value ([3]; BRSNS, trial 4, 17DAA1, 200 g ae/ha)?
**A.** 0.0%

**Q.** What about the “Mean % Visual Injury” value ([3]; BRSNS, trial 4, 41DAA1, 150 g ae/ha) of the same molecule?
**A.** 0.8%

**Q.** And the “Mean % Visual Injury” value ([3]; BRSNS, trial 4, 82DAA1, 150 g ae/ha)?
**A.** 0.0%

**Q.** And the “Mean % Visual Injury” value ([3]; BRSNS, trial 5, 7DAA1, 150 g ae/ha)?
**A.** 0.5% and 0.0% and 1.3% and 1.5%

**Q.** What about the “Mean % Visual Injury” value ([3]; BRSNS, trial 5, 15DAA1, 150 g ae/ha) of the same molecule?
**A.** 0.0% and 0.5%

**Q.** And the “Mean % Visual Injury” value ([3]; BRSNS, trial 5, 36DAA1, 150 g ae/ha)?
**A.** 0.5%

**Q.** And the “Mean % Visual Injury” value ([3]; BRSNS, trial 5, 79DAA1, 150 g ae/ha)?
**A.** 0.0%

**Q.** What about the “Mean % Visual Injury” value ([3]; BRSNS, trial 6, 6DAA1, 150 g ae/ha) of the same molecule?
**A.** 0.0%

**Q.** And the “Mean % Visual Injury” value ([3]; BRSNS, trial 6, 23DAA1, 150 g ae/ha)?
**A.** 0.0%

**Q.** What about the “Mean % Visual Injury” value ([3]; BRSNS, trial 6, 33DAA1, 150 g ae/ha) of the same molecule?
**A.** 2.0%

**Q.** And the “Mean % Visual Injury” value ([3]; BRSNS, trial 6, 59DAA1, 150 g ae/ha)?
**A.** 3.5%

**Q.** And the “Mean % Visual Injury” value ([3]; BRSNS, trial 7, 17DAA1, 100 g ae/ha)?
**A.** 0.0%

**Q.** And the “Mean % Visual Injury” value ([3]; BRSNS, trial 7, 17DAA1, 150 g ae/ha)?
**A.** 0.0%

**Q.** And the “Mean % Visual Injury” value ([3]; BRSNS, trial 7, 17DAA1, 200 g ae/ha)?
**A.** 0.0%

**Q.** What about the “Mean % Visual Injury” value ([3]; BRSNS, trial 7, 27DAA1, 150 g ae/ha) of the same molecule?
**A.** 0.0%

**Q.** And the “Mean % Visual Injury” value ([3]; BRSNS, trial 7, 27DAA1, 200 g ae/ha)?
**A.** 3.0%

**Q.** What about the “Mean % Visual Injury” value ([3]; BRSNS, trial 8, 7DAA1, 150 g ae/ha) of the same molecule?
**A.** 1.5%

**Q.** What about the “Mean % Visual Injury” value ([3]; BRSNS, trial 8, 57DAA1, 150 g ae/ha) of the same molecule?
**A.** 2.3%

**Q.** And the “Mean % Visual Injury” value ([3]; BRSNS, trial 9, 27DAA1, 150 g ae/ha)?
**A.** 1.0%

**Q.** And the “Mean % Visual Injury” value ([3]; BRSNS, trial 9, 60DAA1, 150 g ae/ha)?
**A.** 0.0%

**Q.** What about the “Mean % Visual Injury” value ([3]; Table 15, 7DAAA, halauxifen-methyl 5, clopyralid-olamine 150, quinclorac 101 g ae/ha, alone or mixed) of the same molecule?
**A.** 0.0%

**Q.** And the “Mean % Visual Injury” value ([3]; Table 15, 15DAAA, halauxifen-methyl 5, clopyralid-olamine 150, quinclorac 101 g ae/ha, alone or mixed)?
**A.** 1.5%

**Q.** What about the “Mean % Visual Injury” value ([3]; Table 15, 27DAAA, halauxifen-methyl 5, clopyralid-olamine 150, quinclorac 101 g ae/ha, alone or mixed) of the same molecule?
**A.** 1.0%

**Q.** And the “Mean % Visual Injury” value ([3]; Table 15, 57DAAA, halauxifen-methyl 5, clopyralid-olamine 150, quinclorac 101 g ae/ha, alone or mixed)?
**A.** 2.0%

**Q.** And the “Mean % Visual Injury” value ([3]; Table 17, 7DAAA, halauxifen-methyl 5, clopyralid-olamine 150 g ae/ha alone, or both mixed with isoxadifen-ethyl 5 g ae/ha)?
**A.** 0.0%

**Q.** What about the “Mean % Visual Injury” value ([3]; Table 17, 15DAAA, halauxifen-methyl 5, clopyralid-olamine 150 g ae/ha alone, or both mixed with isoxadifen-ethyl 5 g ae/ha) of the same molecule?
**A.** 1.5%

**Q.** And the “Mean % Visual Injury” value ([3]; Table 17, 27DAAA, halauxifen-methyl 5, clopyralid-olamine 150 g ae/ha alone, or both mixed with isoxadifen-ethyl 5 g ae/ha)?
**A.** 1.0%

**Q.** What about the “Mean % Visual Injury” value ([3]; Table 17, 57DAAA, halauxifen-methyl 5, clopyralid-olamine 150 g ae/ha alone, or both mixed with isoxadifen-ethyl 5 g ae/ha) of the same molecule?
**A.** 2.0%

**Q.** And the “Mean % Visual Injury” value ([3]; Table 18, 8DAAA, halauxifen-methyl 5, clopyralid-olamine 150 g ae/ha, alone or mixed)?
**A.** 0.5%

**Q.** What about the “Mean % Visual Injury” value ([3]; Table 18, 14DAAA, halauxifen-methyl 5, clopyralid-olamine 150 g ae/ha, alone or mixed) of the same molecule?
**A.** 0.5%

**Q.** What about the “Mean % Visual Injury” value ([3]; Table 18, 40DAAA, halauxifen-methyl 5, clopyralid-olamine 150 g ae/ha, alone or mixed) of the same molecule?
**A.** 0.0%

**Q.** And the “Mean % Visual Injury” value ([3]; Table 18, 81DAAA, halauxifen-methyl 5, clopyralid-olamine 150 g ae/ha, alone or mixed)?
**A.** 0.0%

**Q.** And the “Mean % Visual Injury” value ([3]; Table 19, 8DAAA, halauxifen-methyl 5, clopyralid-olamine 150 g ae/ha alone, or both mixed with isoxadifen-ethyl 20 g ae/ha)?
**A.** 0.5%

**Q.** And the “Mean % Visual Injury” value ([3]; Table 19, 14DAAA, halauxifen-methyl 5, clopyralid-olamine 150 g ae/ha alone, or both mixed with isoxadifen-ethyl 20 g ae/ha)?
**A.** 0.5%

**Q.** What about the “Mean % Visual Injury” value ([3]; Table 19, 40DAAA, halauxifen-methyl 5, clopyralid-olamine 150 g ae/ha alone, or both mixed with isoxadifen-ethyl 20 g ae/ha) of the same molecule?
**A.** 0.0%

**Q.** What about the “Mean % Visual Injury” value ([3]; Table 19, 81DAAA, halauxifen-methyl 5, clopyralid-olamine 150 g ae/ha alone, or both mixed with isoxadifen-ethyl 20 g ae/ha) of the same molecule?
**A.** 0.0%

**Q.** What about the “Mean % Visual Injury” value ([3]; Table 22, 8DAAA, halauxifen-methyl 5, clopyralid-olamine 150, quinclorac 101 g ae/ha, alone or mixed) of the same molecule?
**A.** 0.5%

**Q.** And the “Mean % Visual Injury” value ([3]; Table 22, 14DAAA, halauxifen-methyl 5, clopyralid-olamine 150, quinclorac 101 g ae/ha, alone or mixed)?
**A.** 0.5%

**Q.** What about the “Mean % Visual Injury” value ([3]; Table 22, 40DAAA, halauxifen-methyl 5, clopyralid-olamine 150, quinclorac 101 g ae/ha, alone or mixed) of the same molecule?
**A.** 0.0%

**Q.** What about the “Mean % Visual Injury” value ([3]; Table 22, 81DAAA, halauxifen-methyl 5, clopyralid-olamine 150, quinclorac 101 g ae/ha, alone or mixed) of the same molecule?
**A.** 0.0%
